Source: publication PMC10620772, “Design, synthesis, and biological evaluation of new pyrimidine-5-carbonitrile derivatives as novel anti-cancer, dual EGFR^WT/COX-2 inhibitors with docking studies” (RSC Advances, 2023)

Tests used:
Test in all cases: NCI60 antitumor screening
Format in all cases: cell-based, human
OVCAR-5 = settings: Homo sapiens; 10 μM single dose; OVCAR-5 (ovarian cancer); read-out: growth inhibition percent (GI%)
UO-31 = settings: Homo sapiens; 10 μM single dose; UO-31 (renal cancer); read-out: growth inhibition percent (GI%)
SK-MEL-5 = settings: Homo sapiens; 10 μM single dose; SK-MEL-5 (melanoma); read-out: growth inhibition percent (GI%)
HCT-15 = settings: Homo sapiens; 10 μM single dose; HCT-15 (colon cancer); read-out: growth inhibition percent (GI%)
NCI-H522 = settings: Homo sapiens; 10 μM single dose; NCI-H522 (non-small cell lung cancer); read-out: growth inhibition percent (GI%)
RPMI-8226 = settings: Homo sapiens; 10 μM single dose; RPMI-8226 (leukaemia); read-out: growth inhibition percent (GI%)
U251 = settings: Homo sapiens, U-251; 10 μM single dose; U251 (CNS cancer); read-out: growth inhibition percent (GI%)
CCRF-CEM = settings: Homo sapiens; 10 μM single dose; CCRF-CEM (leukaemia); read-out: growth inhibition percent (GI%)
786–0 = settings: Homo sapiens; 10 μM single dose; 786–0 (renal cancer); read-out: growth inhibition percent (GI%)
HOP-62 = settings: Homo sapiens; 10 μM single dose; HOP-62 (non-small cell lung cancer); read-out: growth inhibition percent (GI%)
UACC-62 = settings: Homo sapiens; 10 μM single dose; UACC-62 (melanoma); read-out: growth inhibition percent (GI%)
HCC-2998 = settings: Homo sapiens; 10 μM single dose; HCC-2998 (colon cancer); read-out: growth inhibition percent (GI%)
A549/ATCC = settings: Homo sapiens; 10 μM single dose; A549/ATCC (non-small cell lung cancer); read-out: growth inhibition percent (GI%)
K-562 = settings: Homo sapiens; 10 μM single dose; (leukaemia); read-out: growth inhibition percent (GI%)
MDA-MB-435 = settings: Homo sapiens; 10 μM single dose; MDA-MB-435 (melanoma); read-out: growth inhibition percent (GI%)
IGROV1 = settings: Homo sapiens, IGROV-1; 10 μM single dose; IGROV1 (ovarian cancer); read-out: growth inhibition percent (GI%)
LOX IMVI = settings: Homo sapiens; 10 μM single dose; LOX IMVI (melanoma); read-out: growth inhibition percent (GI%)
SNB-19 = settings: Homo sapiens; 10 μM single dose; SNB-19 (CNS cancer); read-out: growth inhibition percent (GI%)
ACHN = settings: Homo sapiens; 10 μM single dose; ACHN (renal cancer); read-out: growth inhibition percent (GI%)
HL-60(TB) = settings: Homo sapiens; 10 μM single dose; HL-60(TB) (leukaemia); read-out: growth inhibition percent (GI%)
NCI-H322M = settings: Homo sapiens; 10 μM single dose; NCI-H322M (non-small cell lung cancer); read-out: growth inhibition percent (GI%)
NCI/ADR-RES = settings: Homo sapiens; 10 μM single dose; NCI/ADR-RES (ovarian cancer); read-out: growth inhibition percent (GI%)
SNB-75 = settings: Homo sapiens; 10 μM single dose; SNB-75 (CNS cancer); read-out: growth inhibition percent (GI%)
SF-268 = settings: Homo sapiens; 10 μM single dose; SF-268 (CNS cancer); read-out: growth inhibition percent (GI%)
MALME-3M = settings: Homo sapiens; 10 μM single dose; MALME-3M (melanoma); read-out: growth inhibition percent (GI%)
OVCAR-8 = settings: Homo sapiens; 10 μM single dose; OVCAR-8 (ovarian cancer); read-out: growth inhibition percent (GI%)
OVCAR-4 = settings: Homo sapiens; 10 μM single dose; OVCAR-4 (ovarian cancer); read-out: growth inhibition percent (GI%)
NCI-H226 = settings: Homo sapiens; 10 μM single dose; NCI-H226 (non-small cell lung cancer); read-out: growth inhibition percent (GI%)
MCF7 = settings: Homo sapiens; 10 μM single dose; MCF7 (breast cancer); read-out: growth inhibition percent (GI%)
MDA-MB-468 = settings: Homo sapiens; 10 μM single dose; MDA-MB-468 (breast cancer); read-out: growth inhibition percent (GI%)
NCI-H460 = settings: Homo sapiens; 10 μM single dose; NCI-H460 (non-small cell lung cancer); read-out: growth inhibition percent (GI%)
CAKI-1 = settings: Homo sapiens; 10 μM single dose; CAKI-1 (renal cancer); read-out: growth inhibition percent (GI%)
HT29 = settings: Homo sapiens, HT-29; 10 μM single dose; HT29 (colon cancer); read-out: growth inhibition percent (GI%)
RXF 393 = settings: Homo sapiens; 10 μM single dose; RXF 393 (renal cancer); read-out: growth inhibition percent (GI%)
SW-620 = settings: Homo sapiens; 10 μM single dose; SW-620 (colon cancer); read-out: growth inhibition percent (GI%)
SF-539 = settings: Homo sapiens; 10 μM single dose; SF-539 (CNS cancer); read-out: growth inhibition percent (GI%)
TK-10 = settings: Homo sapiens; 10 μM single dose; TK-10 (renal cancer); read-out: growth inhibition percent (GI%)
A498 = settings: Homo sapiens; 10 μM single dose; A498 (renal cancer); read-out: growth inhibition percent (GI%)

In the case of `Cc1ccc(CSc2nc(-c3ccc(F)cc3)c(C#N)c(N3CCN(c4ccccc4)CC3)n2)cc1` [4p, 4-(4-Fluorophenyl)-2-((4-methylbenzyl)thio)-6-(4-phenylpiperazin-1-yl) pyrimidine-5-carbonitrile], the inhibition at 10 µM (OVCAR-5) is reported as less than 10%, the inhibition at 10 µM (UO-31) is reported as less than 10% and the inhibition at 10 µM (SK-MEL-5) is reported as 13.7%. The inhibition at 10 µM (HCT-15) was 13.9%, the inhibition at 10 µM (NCI-H522) was 13.8% and the inhibition at 10 µM (RPMI-8226) was 18.4%. For the same compound, the inhibition at 10 µM (U251) was less than 10%, the inhibition at 10 µM (CCRF-CEM) was less than 10% and the inhibition at 10 µM (786–0) was less than 10%. It also gave an inhibition at 10 µM (HOP-62) of less than 10%, an inhibition at 10 µM (UACC-62) of 29.7% and an inhibition at 10 µM (HCC-2998) of less than 10%. The inhibition at 10 µM (A549/ATCC) was 11.6%, the inhibition at 10 µM (K-562) was 18% and the inhibition at 10 µM (MDA-MB-435) was 10.3%. For the same compound, the inhibition at 10 µM (IGROV1) was less than 10%, the inhibition at 10 µM (LOX IMVI) was less than 10% and the inhibition at 10 µM (SNB-19) was less than 10%. It also gave an inhibition at 10 µM (ACHN) of less than 10%, an inhibition at 10 µM (HL-60(TB)) of less than 10% and an inhibition at 10 µM (NCI-H322M) of less than 10%. The inhibition at 10 µM (NCI/ADR-RES) was less than 10%, the inhibition at 10 µM (SNB-75) was 14.8% and the inhibition at 10 µM (SF-268) was 15.3%. It also gave an inhibition at 10 µM (MALME-3M) of less than 10%, an inhibition at 10 µM (OVCAR-8) of less than 10% and an inhibition at 10 µM (OVCAR-4) of 10.6%. The inhibition at 10 µM (NCI-H226) was less than 10%, the inhibition at 10 µM (MCF7) was 21.3% and the inhibition at 10 µM (MDA-MB-468) was 13.6%. It also gave an inhibition at 10 µM (NCI-H460) of less than 10%, an inhibition at 10 µM (CAKI-1) of 16.6% and an inhibition at 10 µM (HT29) of less than 10%. It also gave an inhibition at 10 µM (RXF 393) of less than 10%, an inhibition at 10 µM (SW-620) of less than 10% and an inhibition at 10 µM (SF-539) of less than 10%. It also gave an inhibition at 10 µM (TK-10) of less than 10% and an inhibition at 10 µM (A498) of less than 10%.
